Where two headings read alike, the source gives them in different places.
Legend:
[1] = Cytotoxicity of A23187 and hydrogen peroxide on stable transfectants, propidium iodide uptake by flow cytometry; conditions: Chinese hamster, Percent cytotoxicity, 4 μg/ml A23187
Method: (§1) MATERIAL AND METHODS: Cell culture and treatment conditions. Chinese hamster HA-1 fibroblasts were maintained in Eagle's minimal essential medium supplemented with 8% heat inactivated fetal bovine serum, penicillin (100 units/ml) and streptomycin (100μg/ml). Cultures were grown in a humidified incubator atmosphere of 95% air and 5% CO2 at 37 °C.
(§2) Stress analyses. Control cells and lines 7, 10, and 15 were grown to log phase and equal confluency (75%). At this time, the cells were exposed to each stress agent and cytotoxicity measured. For the oxidative stress studies, a stock solution of hydrogen peroxide (30% w/w) was diluted in phosphate-buffered saline just prior to cell exposure. At the time of treatment, the HA-1 cultures were taken from the incubator and freshly diluted-peroxide added to the culture dishes. The cells were then returned to the incubator for the appropriate times.
(§3) Stable adapt78-overexpressing, vector control and non-transfected control HA-1 cells were exposed to 4 μg/ml calcium ionophore A23187 or […] for 60 minutes (A23187) or 90 minutes (hydrogen peroxide). Cytotoxicity was then determined by propidium iodide uptake using flow cytometry as follows. After treatment, monolayers were rinsed with PBS containing 3 mM EDTA, then covered with the same for 5 minutes at room temperature before suspending cells by gentle trituration. Cytotoxicity was then measured using propidium iodide and the stained cells analyzed by flow cytometry using a Becton Dickinson FAC Scan. The ModFit analytical software program was used to quantify the percentage of cytotoxicity.
(§4) Control cells and lines 7, 10, and 15 were grown to log phase and equal confluency (75%), then treated with 4 μg/ml A23187 and separately, 5 mM hydrogen peroxide. Cytotoxicity was then assessed by propidium iodide uptake using flow cytometry. Fold protection was calculated as the percent viability of cells compared with untransfected after subtracting out background (cells treated with solvent only). The average of untransfected percent viability was arbitrarily set at 1.0.

[2] = system: HA-1 cells; experiment: as above; conditions: n = 4
Method: as §1, §2, §3, §4

[3] = system: HA-1 cells; conditions: stained 7 days later, cited from earlier work
[4] = system: HA-1 cells; conditions: 160 μM hydrogen peroxide; cited from earlier work

| Compound | cytotoxicity at 60 min, 4 μg/ml ([1]; Untransfected HA-1 cells) [%] | cytotoxicity at 60 min, 4 μg/ml ([1]; Vector transfected HA-1 cells) [%] | cytotoxicity at 60 min, 4 μg/ml ([1]; adapt78 overexpressing Clone 7) [%] | cytotoxicity at 60 min, 4 μg/ml ([1]; adapt78 overexpressing Clone 10) [%] | cytotoxicity at 60 min, 4 μg/ml ([1]; adapt78 overexpressing Clone 15) [%] | Fold protection +/− 1 S.D. ([2]; 4 μg/ml A23187, Clone 7 vs Untransfected) | Fold protection +/− 1 S.D. ([2]; 4 μg/ml A23187, Clone 10 vs Untransfected) | Fold protection +/− 1 S.D. ([2]; 4 μg/ml A23187, Clone 15 vs Untransfected) | Fold protection +/− 1 S.D. ([2]; 4 μg/ml A23187, Untransfected HA-1 cells (set at 1.0)) | Fold protection +/− 1 S.D. ([2]; 4 μg/ml A23187, Vector transfected HA-1 cells vs Untransfected) | Fold protection +/− 1 S.D. ([2]; 5 mM hydrogen peroxide, Clone 10 vs Untransfected) | Fold protection +/− 1 S.D. ([2]; 5 mM hydrogen peroxide, Clone 15 vs Untransfected) | Fold protection +/− 1 S.D. ([2]; 5 mM hydrogen peroxide, Untransfected HA-1 cells (set at 1.0)) | Fold protection +/− 1 S.D. ([2]; 5 mM hydrogen peroxide, Vector transfected HA-1 cells vs Untransfected) | decrease in colony number compared with control ([3]; 160 μM hydrogen peroxide for 5 hours) [%] | decrease in colony number compared with control ([3]; 400 μM hydrogen peroxide for 5 hours) [%] | cytotoxicity using trypan blue exclusion [4] |
| --- | --- | --- | --- | --- | --- | --- | --- | --- | --- | --- | --- | --- | --- | --- | --- | --- | --- |
| CNc1ccc2oc(C[C@H]3O[C@@]4(CC[C@H]3C)O[C@H]([C@H](C)C(=O)c3ccc[nH]3)[C@H](C)C[C@H]4C)nc2c1C(=O)O [A23187] | 48.2 | 44 | 10.1 | 11.7 | 11.8 | 4.8 +/− 0.5 fold | 4.1 +/− 1.0 fold | 4.1 +/− 0.3 fold | 1.0 +/− 0.4 fold | 1.1 +/− 0.3 fold |  |  |  |  |  |  |  |
| OO [Peroxide, hydrogen peroxide] |  |  |  |  |  |  |  |  |  |  | 3.7 +/− 0.6 fold | 4.2 +/− 0.6 fold | 1.0 +/− 0.3 fold | 1.0 +/− 0.4 fold | 79.5 | 97.8 | no associated cytotoxicity was observed |
